From US6545050B1, “Aryl sulphonamide amino acid esters and analogues” (Bayer Aktiengesellschaft, priority 1998, dated 2003)
Counter-ions that a name gives are not always drawn.

Tests used:
rat CB1 receptor = target: T1, rat CB1 receptor (Rattus norvegicus, UniProt P20272); test: CB1 luciferase reporter gene test (CHOluc9 cells stably transfected with rat CB1); assay type: cell-based; details: forskolin stimulated
T1 construct: contains an open reading frame of 1419 base pairs which corresponds to a protein of 473 amino acids; expressed in transfected cells; host or cells: CHOluc9 reporter cells stably transfected with plasmid CMV-RH (rat CB1 cDNA in pRc/CMV)
T1 sequence (P20272 whole entry): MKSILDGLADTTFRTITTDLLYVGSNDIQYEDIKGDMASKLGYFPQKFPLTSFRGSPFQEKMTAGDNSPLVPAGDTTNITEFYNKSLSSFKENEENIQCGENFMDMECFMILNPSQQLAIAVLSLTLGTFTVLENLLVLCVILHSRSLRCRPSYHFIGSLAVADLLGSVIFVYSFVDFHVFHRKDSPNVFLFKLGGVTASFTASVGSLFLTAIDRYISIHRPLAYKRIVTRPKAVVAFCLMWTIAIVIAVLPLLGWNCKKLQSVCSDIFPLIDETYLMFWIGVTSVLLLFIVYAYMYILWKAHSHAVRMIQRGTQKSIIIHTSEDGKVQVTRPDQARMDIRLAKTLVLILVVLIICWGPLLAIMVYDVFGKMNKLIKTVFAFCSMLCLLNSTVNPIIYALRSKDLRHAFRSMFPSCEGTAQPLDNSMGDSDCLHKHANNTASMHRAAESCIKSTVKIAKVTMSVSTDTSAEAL
Description: CB1—Luciferase Reporter Gene Test
1. Cloning of the Rat Cannabinoid Receptor CB1
Total RNA from rat brain (the tissue was taken from freshly killed animals and shock-frozen in liquid nitrogen) was isolated by acidic guanidinium thiocyanate/phenol/chloroform extraction (J. Biol. Chem. 1979, 18, 5294) and converted into cDNA by means of reverse transcriptase and random primers (in each case from Invitrogen). The polymerase chain reaction (PCR, conditions: 4 min 94° C., 1H; 1 min 94° C.; 2 min 53° C.; 1 min 72° C., 50 cycles; 1 min 94° C., 2 min 53° C., 4 min 72° C., 1H) was carried out in a Perkin Elmer thermocycler using the enzyme Taq polymerase (Perkin Elmer); the oligonucleotide primers employed (bases 99 to 122: 5′63′, “down”; 1556-1575: 3′75′, “up”) were derived from the published sequence of the rat cannabinoid receptor (Nature 1990, 346, 561) and were synthesized on a DNA synthesizer, model 1380 from Applied Biosystems. One part of the PCR reaction was separated in a 1% strength agarose gel in 1H TBE buffer and then stained with ethidium bromide, only one band having the expected length being visible (approximately 1.5 kb). This PCR product was subcloned into the TA cloning vector (Invitrogen) and the nucleotide sequence of the insert was determined by the dideoxynucleotide chain termination reaction using T7DNA polymerase (Sequenase, USA/Amersham). The insert has a length of 1477 base pairs and contains an open reading frame of 1419 base pairs which corresponds to a protein of 473 amino acids. The number of base pairs, the position of the open reading frame and the number of amino acids agree with the published sequence. Computer analyses were carried out with the aid of the GCG software suite (Genetic Computer Group). The cDNA insert was subcloned into the expression vector pRc/CMV (Invitrogen) after partial digestion with HindIII and NotI (Biolabs). This construct (plasmid CMV-RH) was employed for transfection experiments.
2. Stable Transfection of the CHOluc9 Reporter Cells
CHOluc9 cells were cultured in 50% Dulbecco's modified Eagle medium/50% F-12 (DMEM/F12) which contained 10% foetal calf serum (FCS). Transfections were prepared in 6-well plates. 7.5 μg of Qiagen-purified CMV-RH plasmid DNA were added per […] with the DOTAP transfection system, corresponding to the experimental protocol of the manufacturer (Boehringer Mannheim). Transfected cells were selected using 1 mg/ml G418 and individual clones were obtained by limiting dilution in 96-well plates. Cell lines which express the cannabinoid receptor were identified for the inhibition of reporter gene expression after incubation with the cannabinoid receptor agonist, WIN-55,212-2, in the presence of forskolin. Several stably transfected and subcloned cell lines were further characterized by means of RT-PCR, as described under 1.
3. Test Optimization and Pharmacological Characterization of the CHOCB1 Reporter Cell Line
With the aim of high sensitivity and reproducibility, low variance and high suitability for carrying out on the robotic system, the luciferase test was optimized by variation of several test parameters, such as, for example, cell density, duration of the growth phase and the test incubation, forskolin concentration, medium composition. The following test protocol was used for pharmacological characterization of the cells and for robot-assisted substance screening: the stock cultures were cultured in 50% Dulbecco's modified Eagle medium/50% F-12 (DMEM/F12) with 10% FCS at 37° C. under 10% CO2 and in each case split 1:10 after 2 to 3 days. Test cultures were inoculated into 96-well plates at 5000 cells per well and cultured at 37° C. for 70 hours. The cultures were then carefully washed with phosphate-buffered saline and reconstituted using serum-free ultra-CHO medium (Bio-Whittaker). The substances dissolved in DMSO were diluted 1H in medium and pipetted into the test cultures (maximum DMSO final concentration in the test batch: 0.5%). […]

[1] = Solubility determination by precipitation method in physiological saline; assay type: physicochemical; details: saline or isotonic, kinetic from dmso stock, 25° C., shaken 1 hour, HPLC
Description: To determine the solubility, a precipitation method was used:
10 mg of the test substance are completely dissolved in 50 μl of DMSO (stock solution). From this solution, 20 μl are added to 2000 μl of physiological saline. This solution in turn is shaken at 25° C. in a Thermomixer Comfort (from Eppendorf) at 1400 rpm for 1 hour, for equilibration.
The precipitated fractions of the test substance are centrifuged off at 14,000 rpm for 5 min, using a Biofuge 15 from Heraeus. 1300 μl of the supernatant are again centrifuged using a Microfuge from Beckmann, at 45,000 rpm=125,000 g.
10 μl of this centrifugation supernatant are then diluted with 1000 μl of DMSO, and this solution is measured by HPLC. (Hewlett Packard 1090, method: gradient of 100% PBS buffer pH=4 over 15 min to 10% buffer/90% acetonitrile, column: RP18)
The measured peak area of the HPLC determination is converted into the substance concentration using a calibration curve. For the calibration curve, 20 μl of the stock solution are successively diluted with DMSO in such a manner that 5 concentrations of from 2.5 mg/l to 2000 mg/l are obtained. These solutions are likewise measured by HPLC (method see above) and the peak areas are plotted against the concentrations.

rats = test: Rat hypothermia - agonism testing; assay type: in vivo; details: i.v. administration
Description: Five minutes after determination of the basal body temperature via an oesophageal temperature probe, the test substance is administered (i.v.). A control group receives only the solvent of the test substances, likewise i.v. The body temperature is measured 7.5, 15, 30 and 60 minutes after i.v. administration. The group size per dose is 5-7 animals (rats).

SMILES | IC50 (rat CB1 receptor) | solubility at 1 h [1] | ED−1° C. (effective dose for 1° C. body temperature reduction) (rats)
CC(C)(C)OC(=O)NCC(=O)OC[C@@H]1Cc2cccc(Oc3cccc(OS(=O)(=O)CCCC(F)(F)F)c3)c2C1 [Example 1, (R)-3-[2-(N-tert-butyloxycarbonylglycinyl)-oxymethyl-indanyl-4-oxy]-phenyl 4,4,4-trifluoro-1-butanesulphonate] | 0.35 nM |  | 
CC(C)(C)OC(=O)NCCCCCCC(=O)OC[C@@H]1Cc2cccc(Oc3cccc(OS(=O)(=O)CCCC(F)(F)F)c3)c2C1 [Example 2, (R)-3-[2-(7-N-tert-Butyloxycarbonylaninoheptanoyloxymethyl)-indanyl-4-oxy]-phenyl 4,4,4-trifluoro-1-butanesulphonate] | 0.13 nM |  | 
NCC(=O)OC[C@@H]1Cc2cccc(Oc3cccc(OS(=O)(=O)CCCC(F)(F)F)c3)c2C1 [Example 5, (R)-3-(2-Glycinyl-oxymethyl)-indanyl-4-oxy)-phenyl 4,4,4-trifluoro-1-butanesulphonate hydrochloride] | 0.11 nM | 720 µg/mL | 0.03 mg/kg
NCCCCCCC(=O)OC[C@@H]1Cc2cccc(Oc3cccc(OS(=O)(=O)CCCC(F)(F)F)c3)c2C1 [Example 6, (R)-3-[2-(7-Aminoheptanoyloxymethyl)-indanyl-4-oxy)-phenyl 4,4,4-trifluoro-1-butanesulphonate hydrochloride] | 0.85 nM |  | 
NCCC(=O)OC[C@@H]1Cc2cccc(Oc3cccc(OS(=O)(=O)CCCC(F)(F)F)c3)c2C1 [Example 7, (R)-3-[2-(3-Aminopropanoyloxymethyl)-indanyl-4-oxy)-phenyl 4,4,4-trifluoro-1-butanesulphonate hydrochloride] | 0.4 nM |  | 
CC(C)[C@H](N)C(=O)OC[C@@H]1Cc2cccc(Oc3cccc(OS(=O)(=O)CCCC(F)(F)F)c3)c2C1 [Example 8, (R)-3-[2-((S)-Valinyloxymethyl)-indanyl-4-oxy]-phenyl 4,4,4-trifluoro-1-butanesulphonate hydrochloride] | 0.2 nM |  | 
